For this experiment, the system named is catalytic monoclonal antibody 62C7 (anti-13.3), secreted by hybridoma 62C7, ATCC HB11703. Nature of the experiment: Antibody-catalyzed dienone-phenol rearrangement of 7 to 8, product formation followed by reverse-phase HPLC. It counts as biochemical, Balb/c mice. The procedure: The KLH conjugates of haptens 13.3, 13.4, and 13.5 were then employed to inoculate Balb/c mice and antibodies were generated by standard protocols. (G. Kohler et al. Nature (1975), vol. 265, page 495.) Monoclonal antibodies were purified from ascites fluid by anion exchange chromatography and assayed against substrate 7 for production of the phenol product 8. Fourteen anti-13.3, twenty two anti-13.4, and twenty one anti-13.5 antibodies were assayed for catalysis of the rearrangement reaction converting dienone substrate 7 to phenol product 8. […] Assay condition employed […] in 100 mM NaCl, 50 mM of either bistris(bis(hydroxyethyl)-tris(hydroxymethyl)aminomethane) or 1,3-bis[tris (hydroxymethyl)aminopropane at 37° C. Product formation was followed by reverse-phase HPLC (Vydac C-18 218TP54 column (0.45×22 cm) at a flow rate of 1.5 milliliters/minute using 28% CH3 CN and 72% H2 O+0.1% CF3 COOH. Retention time tR for substrate 7 was 5.02 minutes. Retention time tR for product 8 was 7.14 minutes. The pD (98%) D2 O) values were obtained by adding 0.4 to the pH-electrode reading. […] Antibody 62C7 (anti-13.3) was characterized in detail.
FIG. 3 illustrates the pH-profile of the rearrangement reaction in the presence of catalytic antibody 62C7 (anti-13.3) and without. Background rates are determined in H2 O and in D2 O. The lines are caluclated from the following equations respectively:
kcat =kcat °+kcatH -[H3 O^30 ]^0.92 ;
kH2O =k°+kH +[H3 O^30 ]; kD2O
Accordingly, FIG. 3 illustrates both the antibody 62C7 catalyzed and the background reactions proceed via a hydronium ion catalyzed pathway, viz. kcatH+ =0.176/Mole second, H+ =1.51×10^-3 /Mole second. […] This is consistent with pre-equilibrium protonation of substrate 7 to form a first intermediate 10. This reaction probably reflects the spontaneous rearrangement of substrate 7 to the conjugate base of a second intermediate 12. This rearrangement reaction probably also occurs when substrate 7 is complexed with anti-13.3, i.e., second intermediate 12 is formed within the antibody complex. Importantly, a small inverse secondary isotope effect is observed in all cases at position C(3) of the dienone, viz., kcatH /kCatD =0.88 at pH=5.75, kH /kD =0.88-0.94 from pH=2.95 to 9.54. […] Accordingly, the rate determining step is the […]. (V. Vitullo et al., J. Am. Chem. Soc. (1974), vol. 94, page 3844.) Although this carbon hydrogen bond is ultimately broken to yield the product phenol 8, it is not involved in the rate determining step as this would have given rise to a large, normal isotope effect at that position.

Setting [1] is: pH 5.75, 37° C., 100 mM NaCl, 50 mM buffer.

As for `[2H]C1=C(C)C(=O)C(C)=C([2H])C1(Cc1ccc(C(=O)NCCO)cc1)OC` [Compound 7-d2], where the note is “pH 5.75, 37° C.”, the kcat is 1.37e-06 s⁻¹ and the kcat / kuncat is reported as 80. For the same molecule, under setting [1], the Km is 770 µM.

`COC1(Cc2ccc(C(=O)NCCO)cc2)C=C(C)C(=O)C(C)=C1` [Compound 7]: under “from pH-profile, FIG. 3”, the “kcatH+ (hydronium ion catalyzed pathway of the antibody reaction)” value was 0.176 mol⁻¹ s⁻¹. Also, the Km amounted to 1300 µM (in D2O, pD 7.07, 37° C.); 670 µM under setting [1]; 1200 µM (pH 7.07, 37° C., H2O). Also, the kcat (in D2O, pD 7.07, 37° C.) was determined as 1.25e-06 s⁻¹; the kcat (pH 5.75, 37° C.) was 1.22e-06 s⁻¹; the kcat (pH 7.07, 37° C., H2O) came to 1.25e-06 s⁻¹. Further, the kcat / kuncat is, setting by setting: (in D2O, pD 7.07, 37° C.) 95; (pH 5.75, 37° C.) 80; (pH 7.07, 37° C., H2O) 90. The “kcatH /kCatD (secondary isotope effect at position C(3) of the dienone)” value (pH=5.75, 7 versus 7-d2) was found to be 0.88.

These data come from patent US5500358A, “Antibody catalysis of cyclohexadienone rearrangments” (The Scripps Research Institute, priority 1994, dated 1996).
